Data reported in US10611750B2, “Tetrahydroquinoline compositions as bet bromodomain inhibitors” (FORMA Therapeutics, Inc., priority 2013, dated 2020).
Like-named read-outs stand apart in the source and are kept apart here.

Assays:
[1] = biological target: T1, BRD4 Bromodomain 1 (BRD4 BD1) (Homo sapiens, UniProt O60885); experiment: AlphaScreen binding assay, BRD4 BD1; settings: His-tagged BRD4 BD1 50 nM, biotinylated H4 (1-21) K5/8/12/16 tetra-acetylated peptide 50 nM, compounds listed under IC50 range headings
T1 construct: 44-168 and BRD4 BD2
Procedure, shortened: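 Compound dilution series were mixed with His-tagged BRD4 bromodomain and biotinylated tetra-acetylated H4 (1-21) peptide at pH 7.3 (BD1 and peptide at 50 nM, BD2 and peptide at 100 nM). Donor and acceptor beads were then added, and plates were equilibrated at least 1 h before reading. IC50 values were fitted with a four-parameter logistic model.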

[2] = tested on: acute myelocytic leukemia (AML) cell line MV4-11; experiment: Oncology cell growth assay (3-day proliferation, CellTiter-Glo); assay type: cell-based; settings: Homo sapiens, MV4-11 cells, 3000 cells/well, compounds listed under IC50 range headings, read-out: MV411 IC50 (gIC50, inhibition of proliferation)
Procedure, shortened: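 Luminescence from CellTiter-Glo served as the growth read-out after MV4-11 cells (3000/well) were cultured with compound for 72 hours. Final concentrations spanned 10 to 0.0045 μM in 3-fold steps. gIC50 values were derived by four-parameter logistic fitting relative to DMSO and cell-free controls.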

SMILES	IC50 [1]	IC50 ([2]; MV4-11, 72 h)	IC50 ([2]; 72 hours)
COC(=O)N1c2ccc(-c3cnn(C4CCNCC4)c3F)c(OC3CCC3)c2CC[C@@H]1C [I-360, methyl (S)-5-cyclobutoxy-6-(5-fluoro-1-(piperidin-4-yl)-1H-pyrazol-4-yl)-2-methyl-3,4-dihydroquinoline-1(2H)-carboxylate]	100 to 1000 nM		< 500 nM
C[C@H]1CCc2c(OC3CCC3)c(-c3cn(C)nn3)cc(F)c2N1C(=O)C1CC1 [I-124, (S)-(5-cyclobutoxy-8-fluoro-2-methyl-6-(1-methyl-1H-1,2,3-triazol-4-yl)-3,4-dihydroquinolin-1 (2H)-yl)(cyclopropyl)methanone]	100 to 1000 nM	500 to 1000 nM	
C[C@H]1CCc2c(Oc3ccccc3)c(-c3cn[nH]c3)cc(F)c2N1C(=O)C1CC1 [I-238, (S)-cyclopropyl(8-fluoro-2-methyl-5-phenoxy-6-(1H-pyrazol-4-yl)-3,4-dihydroquinolin-1(2H)-yl)methanone]	1000 to 10000 nM	< 500 nM	
C[C@H]1CCc2c(ccc(-c3cn(C4CCNCC4)nn3)c2OC2CCC2)N1C(=O)C1CC1 [I-310, (S)-(5-cyclobutoxy-2-methyl-6-(1-(piperidin-4-yl)-1H-1,2,3-triazol-4-yl)-3,4-dihydroquinolin-1(2H)-yl)(cyclopropyl)methanone]	100 to 1000 nM	< 500 nM	
COC(=O)N1c2ccc(-c3csc(C4(F)CCNCC4)n3)c(OC3CCC3)c2CC[C@@H]1C [I-281, methyl (S)-5-cyclobutoxy-6-(2-(4-fluoropiperidin-4-yl)thiazol-4-yl)-2-methyl-3,4-dihydroquinoline-1(2H)-carboxylate]	100 to 1000 nM	500 to 1000 nM	
COC(=O)N1c2ccc(-c3csc(C4(F)CNC4)n3)c(OC3CCC3)c2CC[C@@H]1C [I-349, (S)-methyl 5-cyclobutoxy-6-(2-(3-fluoroazetidin-3-yl)thiazol-4-yl)-2-methyl-3,4-dihydroquinoline-1(2H)-carboxylate]	1000 to 10000 nM	> 1000 nM	
CC(=O)N1c2c(F)cc(-c3cn[nH]c3)c(OC3CCC3)c2CC[C@@H]1C [I-74, (S)-1-(5-cyclobutoxy-8-fluoro-2-methyl-6-(1H-pyrazol-4-yl)-3,4-dihydroquinolin-1(2H)-yl)ethanone]	1000 to 10000 nM	500 to 1000 nM	
C[C@H]1CCc2c(ccc(-c3cnn(C4CCNCC4)c3)c2Oc2ccccn2)N1C(=O)C1CC1 [I-95, (S)-cyclopropyl(2-methyl-6-(1-(piperidin-4-yl)-1H-pyrazol-4-yl)-5-(pyridin-2-yloxy)-3,4-dihydroquinolin-1(2H)-yl)methanone]	1000 to 10000 nM	< 500 nM	
C[C@H]1CCc2c(ccc(-c3cnn(C4CCNCC4)c3)c2Oc2cccc(Cl)n2)N1C(=O)C1CC1 [I-94, (S)-(5-(6-chloropyridin-2-yloxy)-2-methyl-6-(1-(piperidin-4-yl)-1H-pyrazol-4-yl)-3,4-dihydroquinolin-1(2H)-yl)(cyclopropyl)methanone]	1000 to 10000 nM	< 500 nM	
C[C@H]1CCc2c(ccc(-n3cc(N4CCOCC4)cn3)c2Oc2ccccc2)N1C(=O)C1CC1 [I-338, (S)-cyclopropyl(2-methyl-6-(4-morpholino-1H-pyrazol-1-yl)-5-phenoxy-3,4-dihydroquinolin-1(2H)-yl)methanone]	1000 to 10000 nM	500 to 1000 nM	
COC(=O)N1c2ccc(-c3cnn(C4CNC4C)c3)c(OC3CCC3)c2CC[C@@H]1C (stereo partly drawn) [I-299, methyl (2S)-5-cyclobutoxy-2-methyl-6-(1-(2-methylazetidin-3-yl)-1H-pyrazol-4-yl)-3,4-dihydroquinoline-1(2H)-carboxylate]	1000 to 10000 nM	500 to 1000 nM	
COc1cccc(Oc2c(-c3cn(C)nn3)ccc3c2CC[C@H](C)N3C(=O)C2CC2)c1 [I-234, (S)-cyclopropyl(5-(3-methoxyphenoxy)-2-methyl-6-(1-methyl-1H-1,2,3-triazol-4-yl)-3,4-dihydroquinolin-1 (2H)-yl)methanone]	1000 to 10000 nM	< 500 nM	
C#Cc1ccc2c(c1Oc1ccccc1)CC[C@H](C)N2C(=O)C1CC1 [I-345, (S)-cyclopropyl(6-ethynyl-2-methyl-5-phenoxy-3,4-dihydroquinolin-1(2H)-yl)methanone]	≥ 10000 nM	> 1000 nM	
C[C@H]1CCc2c(ccc(-c3cnn(C4CS(=O)(=O)C4)c3)c2Oc2ccccc2)N1C(=O)C1CC1 [I-230, 3-[4-[(2S)-1-cyclopropanecarbonyl-2-methyl-5-phenoxy-1,2,3,4-tetrahydroquinolin-6-yl]-1H-pyrazol-1-yl]-1λ^6-thietane-1,1-dione]	100 to 1000 nM	< 500 nM	
COC(=O)N1c2ccc(-c3cnn(C4CC5CNCC5C4)c3)c(Oc3ccc(F)cc3)c2CC[C@@H]1C (stereo partly drawn) [I-186, (2S)-methyl 5-(4-fluorophenoxy)-2-methyl-6-(1-(octahydrocyclopenta[c]pyrrol-5-yl)-1H-pyrazol-4-yl)-3,4-dihydroquinoline-1(2H)-carboxylate]	100 to 1000 nM	< 500 nM	
C[C@H]1CCc2c(ccc(-c3cn(C)cn3)c2Oc2ccccc2)N1C(=O)C1CC1 [I-221, (S)-cyclopropyl(2-methyl-6-(1-methyl-1H-imidazol-4-yl)-5-phenoxy-3,4-dihydroquinolin-1(2H)-yl)methanone]	100 to 1000 nM	< 500 nM	
COC(=O)N1c2ccc(C3CC3)c(Oc3ccccc3)c2CC[C@@H]1C [I-244, (S)-methyl 6-cyclopropyl-2-methyl-5-phenoxy-3,4-dihydroquinoline-1(2H)-carboxylate]	≥ 10000 nM	> 1000 nM	
C[C@H]1CCc2c(Oc3ccccc3)c(-c3cn(C)nn3)cc(F)c2N1C(=O)C1CC1 [I-321, (S)-cyclopropyl(8-fluoro-2-methyl-6-(1-methyl-1H-1,2,3-triazol-4-yl)-5-phenoxy-3,4-dihydroquinolin-1(2H)-yl)methanone]	100 to 1000 nM	< 500 nM	

The next lines start with results.

IC50 [1]	IC50 ([2]; MV4-11, 72 h)	SMILES	IC50 ([2]; 72 hours)
100 to 1000 nM	< 500 nM	COC(=O)N1c2ccc(-c3cnn(C4CCNCC4)c3)c(Oc3ccc(OC)cc3)c2CC[C@@H]1C [I-199, (S)-methyl 5-(4-methoxyphenoxy)-2-methyl-6-(1-(piperidin-4-yl)-1H-pyrazol-4-yl)-3,4-dihydroquinoline-1(2H)-carboxylate]	
100 to 1000 nM	< 500 nM	C[C@H]1CCc2c(ccc(C3CC3)c2Oc2ccccc2)N1C(=O)C1CC1 [I-243, (S)-cyclopropyl(6-cyclopropyl-2-methyl-5-phenoxy-3,4-dihydroquinolin-1 (2H)-yl) methanone]	
100 to 1000 nM	< 500 nM	C[C@H]1CCc2c(ccc(-c3cnn(C4CCNCC4)c3)c2Oc2cc(F)cc(F)c2)N1C(=O)C1CC1 [I-183, (S)-cyclopropyl(5-(3,5-difluorophenoxy)-2-methyl-6-(1-(piperidin-4-yl)-1H-pyrazol-4-yl)-3,4-dihydroquinolin-1(2H)-yl)methanone]	
100 to 1000 nM	< 500 nM	COC(=O)N1c2ccc(-c3cnn(C4CCNCC4)c3)c(Oc3ccccc3OC)c2CC[C@@H]1C [I-197, (S)-methyl 5-(2-methoxyphenoxy)-2-methyl-6-(1-(piperidin-4-yl)-1H-pyrazol-4-yl)-3,4-dihydroquinoline-1(2H)-carboxylate]	
100 to 1000 nM	< 500 nM	C[C@H]1CCc2c(ccc(-c3c[nH]nn3)c2Oc2ccccc2)N1C(=O)C1CC1 [I-187, (S)-cyclopropyl(2-methyl-5-phenoxy-6-(1H-1,2,3-triazol-4-yl)-3,4-dihydroquinolin-1(2H)-yl)methanone]	
100 to 1000 nM	< 500 nM	C[C@H]1CCc2c(ccc(-c3cnn(C4CNC4)c3)c2Oc2cccc(F)c2)N1C(=O)C1CC1 [I-173, (S)-(6-(1-(azetidin-3-yl)-1H-pyrazol-4-yl)-5-(3-fluorophenoxy)-2-methyl-3,4-dihydroquinolin-1(2H)-yl)(cyclopropyl)methanone]	
100 to 1000 nM	< 500 nM	CC(=O)N1c2ccc(-c3cn(C)nn3)c(Oc3ccccc3)c2CC[C@@H]1C [I-233, (S)-1-(2-methyl-6-(1-methyl-1H-1,2,3-triazol-4-yl)-5-phenoxy-3,4-dihydroquinolin-1(2H)-yl)ethanone]	
100 to 1000 nM	< 500 nM	Cc1ccc(Oc2c(-c3cnn(C4CCNCC4)c3)ccc3c2CC[C@H](C)N3C(=O)C2CC2)c(C)n1 [I-332, (S)-cyclopropyl(5-(2,6-dimethylpyridin-3-yloxy)-2-methyl-6-(1-(piperidin-4-yl)-1H-pyrazol-4-yl)-3,4-dihydroquinolin-1(2H)-yl)methanone]	
100 to 1000 nM	< 500 nM	C[C@H]1CCc2c(ccc(-c3cnn(C4CCCS(=O)(=O)C4)c3)c2Oc2ccc(F)cc2)N1C(=O)C1CC1 (stereo partly drawn) [I-295, 3-{4-[(2S)-1-cyclopropanecarbonyl-5-(4-fluorophenoxy)-2-methyl-1,2,3,4-tetrahydroquinolin-6-yl]-1H-pyrazol-1-yl}-1λ^6-thiane-1,1-dione]	
100 to 1000 nM	< 500 nM	C[C@H]1CCc2c(ccc(-c3cnn(C4CCNCC4)c3)c2Oc2cc(F)ccc2F)N1C(=O)C1CC1 [I-274, (S)-cyclopropyl(5-(2,5-difluorophenoxy)-2-methyl-6-(1-(piperidin-4-yl)-1H-pyrazol-4-yl)-3,4-dihydroquinolin-1 (2H)-yl)methanone]	
100 to 1000 nM	< 500 nM	COc1cccc(Oc2c(-c3cnn(C4CCNCC4)c3)ccc3c2CC[C@H](C)N3C(=O)C2CC2)c1 [I-195, (S)-cyclopropyl(5-(3-methoxyphenoxy)-2-methyl-6-(1-(piperidin-4-yl)-1H-pyrazol-4-yl)-3,4-dihydroquinolin-1(2H)-yl)methanone]	
